Results: patent US9174992B2, “Heterobicyclic compounds” (Amgen Inc., priority 2012, dated 2015)

These compounds were tested against PDE10A (UniProt Q9Y233) (assay: PDE10 enzyme inhibition, IMAP TR-FRET assay (Example A, MPDE10A7 Enzyme Activity and Inhibition)). Details: approximate IC50 value, Table 10.
Format: biochemical
In short: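 Compounds were preincubated 60 min at room temperature with PDE10A enzyme or tissue homogenate, then fluorescein-labeled cAMP or cGMP was added for 90 min. After stopping with IMAP binding reagents, TR-FRET was read and IC50s were fitted with a four-parameter logistic equation.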
In the case of `CC1(C)C(=O)N([C@H]2C[C@H](Nc3ccc4ncccc4n3)C2)c2nccnc21` [Example 163, 5-(trans-3-((1,5-naphthyridin-2-yl)amino)cyclobutyl)-7,7-dimethyl-5H-pyrrolo[2,3-b]pyrazin-6(7 H)-one], the IC50 is reported as 0.459 nM. `Cc1ccc(N[C@H]2C[C@H](N3C(=O)C(C)(C)c4cccnc43)C2)nc1` [Example 38, 3,3-Dimethyl-1-(trans-3-(5-methylpyridin-2-yl)amino)cyclobutyl-1H-pyrrolo[2,3-b]pyridin-2(3H)-one] showed an IC50 of 0.166 nM. `CC1(C)C(=O)N([C@H]2C[C@H](Nc3ccc(Br)cn3)C2)c2nccnc21` [Example 158, 5-(trans-3-((5-bromopyridin-2-yl)amino)cyclobuty1)-7,7-dimethyl-5H-pyrrolo[2,3-b]pyrazin-6(7 H)-one] showed an IC50 of 0.189 nM. Work on `O=c1n(C2CC2)c2cncnc2n1[C@H]1C[C@H](Nc2nc3ccccc3s2)C1` [Example 91, 9-(trans-3-(benzo[d]thiazol-2-ylamino)cyclobutyl)-7-cyclopropyl-7H-purin-8(9H)-one] yielded an IC50 of 0.469 nM. Compound `O=c1n(C2CC2)c2cccnc2n1[C@H]1C[C@H](Nc2nc3ccc(F)cc3s2)C1` [Example 186, 1-cyclopropyl-3-(trans-3-((6-fluorobenzo[d]thiazol-2-yl)amino)cyclobutyl)-1H-imidazo[4,5-b]pyridin-2(3H)-one] has an IC50 of 0.669 nM. Work on `COc1nc2cccnc2n1C1CN(c2nc3ccccc3s2)C1` [Example 131, 2-(3-(2-Methoxy-3H-imidazo[4,5-b]pyridin-3-yl)azetidin-1-yl)benzo[d]thiazole] yielded an IC50 of 1.35 nM. For `CCc1cnc(N[C@H]2C[C@H](N3C(=O)C(C)(C)c4cccnc43)C2)nc1` [Example 47, 1-(trans-3-((5-ethylpyrimidin-2-yl)amino)cyclobutyl)-3,3-dimethyl-1H-pyrrolo[2,3-b]pyridin-2(3H)-one], the IC50 was 2.64 nM. Compound `CC1(C)C(=O)N(C2CCN(c3ncc4ccc(Cl)cc4n3)CC2)c2nccnc21` [Example 200, 5-(1-(7-chloroquinazolin-2-yl)piperidin-4-yl)-7,7-dimethyl-5H-pyrrolo[2,3-b]pyrazin-6(7H)-one] has an IC50 of 86.3 nM. `CC1(C)C(=O)N([C@H]2C[C@H](Nc3ccnc(Cl)n3)C2)c2ncccc21` [Example 72, 1-(trans-3-((2-cholropyrimidin-4-yl)amino)cyclobutyl)-3,3-dimethyl-1H-pyrrolo[2,3-b]pyridin-2(3H)-one] showed an IC50 of 352 nM. `COc1nc2cccnc2n1C1CCN(c2nc3ccccc3s2)CC1` [Example 123, 2-(4-(2-methoxy-3H-imidazo[4,5-b]pyridine-3-yl)piperidin-1-yl)benzo[d]thiazole] gave an IC50 of 2.24 nM. Work on `CC1(C)C(=O)N([C@H]2C[C@H](Nc3nc4cc(F)c(F)cc4s3)C2)c2nccnc21` [Example 169, 5-(trans-3-((5,6-difluorobenzo[d]thiazole-2-yl)amino)cyclobutyl)7,7-dimethyl-5H-pyrrolo-[2,3-b]pyrazin-6(7 H)-one] yielded an IC50 of 0.416 nM. For `O=C1COc2cccnc2N1[C@H]1C[C@H](Nc2nc3ccccc3s2)C1` [Example 182, 4-(trans-3-(benzo[d]thiazol-2-ylamino)cyclobutyl)-2H-pyrido[3,2-b][1,4]oxazin-3(4H)-one], the IC50 was over 9750 nM. With `Cc1cnc(N[C@H]2C[C@H](N3C(=O)C(C)(C)c4cccnc43)C2)nc1` [Example 48, 1-(trans-3-((5-methylpyrimidin-2-yl)amino)cyclobutyl)-3,3-dimethyl-1H-pyrrolo[2,3-b]pyridin-2(3H)-one] the IC50 was 3.46 nM. Compound `CC1(C)C(=O)N([C@H]2C[C@H](Nc3ccc(F)cn3)C2)c2nccnc21` [Example 76, 5-(trans-3-((5-fluoropyridin-2-yl)amino)cyclobutyl)-7,7-dimethyl-5H-pyrrolo[2,3-b]pyrazin-6(7H)-one] has an IC50 of 51.1 nM. With `O=C1N([C@H]2C[C@H](Nc3nc4ccccc4s3)C2)c2ncc(F)cc2C12CC2` [Example 33, 1′-(trans-3-(1,3-benzothiazol-2-ylamino)cyclobutyl)-5′-fluorospiro[cyclopropane-1,3′-pyrrolo[2,3-b]pyridin]-2′(1′H)-one] the IC50 was 0.0768 nM. Work on `Cc1ccc(N[C@H]2CC[C@H](N3C(=O)C(C)(C)c4nccnc43)CC2)nc1` [Example 75, 7,7-Dimethyl-5-(trans-4-((5-methylpyridin-2-yl)amino)cyclohexyl)-5H-pyrrolo[2,3-b]pyrazin-6(7H)-one] yielded an IC50 of 5.02 nM. For `c1cnc2c(c1)nc(C1CC1)n2[C@H]1C[C@H](Nc2ccc3ccncc3n2)C1` [Example 18, N-(Trans-3-(2-cyclopropyl-3H-imidazo[4,5-b]pyridin-3-yl)cyclobutyl)-1,7-naphthyridin-2-amine], the IC50 was 28.4 nM. Compound `COc1nc2cccnc2n1C1CN(c2nc3ccccc3[nH]2)C1` [Example 132, 3-(1-(1H-benzo[d]imidazol-2-yl)azetidin-3-yl)-2-methoxy-3H-imidazo[4,5-b]pyridine] has an IC50 of 1.69 nM. With `COc1nc2cccnc2n1C1CN(c2nccc(-c3ccc(C)nc3)n2)C1` [Example 130, 2-Methoxy-3-(1-(4-(6-methylpyridin-3-yl)pyrimidin-2-yl)azetidin-3-yl)-3H-imidazo[4,5-b]pyridine] the IC50 was 2.84 nM. `Cn1c(=O)n([C@H]2C[C@H](Nc3nc4cc(F)ccc4s3)C2)c2ncc(F)cc21` [Example 210, 6-fluoro-3-(trans-3-((5-fluorobenzo[d]thiazol-2-yl)amino)cyclobutyl)-1-methyl-1H-imidazo[4,5-b]pyridin-2(3 H)-one] showed an IC50 of 0.892 nM. For `CC1(C)C(=O)N([C@H]2C[C@H](Nc3ncc(C(F)(F)F)cn3)C2)c2ncccc21` [Example 70, 1-(trans-3-((5-(trifluoromethyl)pyrimidin-2-yl)amino)cyclobutyl)-3,3-dimethyl-1H-pyrrolo[2,3-b]pyridin-2(3H)-one], the IC50 was 180 nM. For `O=C1N([C@H]2C[C@H](Nc3nc4ccccc4s3)C2)c2ncccc2C12CC2` [Example 31, 1′-(Trans-3-(benzo[d]thiazol-2-ylamino)cyclobutyl)spiro[cyclopropane-1,3′-pyrrolo[2,3-b]pyridin]-2′(1′H)-one], the IC50 was 0.0151 nM. `CC1(C)C(=O)N(C2CCN(c3ncc4cc(F)ccc4n3)CC2)c2nccnc21` [Example 201, 5-(1-(6-fluoroquinazolin-2-yl)piperidin-4-yl)-7,7-dimethyl-5H-pyrrolo[2,3-b]pyrazin-6(7H)-one] was tested, and the IC50 was 3.48 nM. Work on `Cc1ccc(N[C@H]2C[C@@H](N3C(=O)C(C)(C)c4nccnc43)C2)nc1` [Example 139, 7,7-dimethyl-5-(cis-3-((5-methylpyridin-2-yl)amino)cyclobutyl)-5H-pyrrolo[2,3-b]pyrazin-6(7H)-one] yielded an IC50 of 157 nM. With `O=C1N([C@H]2C[C@H](Nc3nc4ccccc4s3)C2)c2ncc(F)cc2C1(F)F` [Example 208, 1-(trans-3-(benzo[d]thiazol-2-ylamino)cyclobutyl)-3,3,5-trifluoro-1H-pyrrolo[2,3-b]pyridin-2(3H)-one] the IC50 was 0.626 nM. In the case of `c1cnc2c(c1)ccn2[C@H]1C[C@H](Nc2nc3ccccc3s2)C1` [Example 165, N-(trans-3-(1H-pyrrolo[2,3-b]pyridin-1-yl)cyclobutyl)benzo[d]thiazol-2-amine], the IC50 is reported as 38.5 nM. Work on `CC1(C)C(=O)N([C@H]2C[C@H](Nc3nc4cc(F)ccc4s3)C2)c2nccnc21` [Example 154, 5-(trans-3-((5-fluorobenzo[d]thiazol-2-yl)amino)cyclobutyl)-7,7-dimethyl-5H-pyrrolo[2,3-b]pyrazin-6(7H)-one] yielded an IC50 of 0.136 nM. Compound `COc1ccc(N(c2ccc(OC)cn2)[C@H]2C[C@H](N3C(=O)C(C)(C)c4cccnc43)C2)nc1` [Example 50, 1-(trans-3-(BIS(5-methoxypyridin-2-yl)amino)cyclobutyl)-3,3-dimethyl-1H-pyrrolo[2,3-b]pyridin-2(3H)-one] has an IC50 of 4.63 nM. `Cc1ccc(N[C@H]2CC[C@H](N3C(=O)C(C)(C)c4nccnc43)CC2)nc1` [Example 73, 7,7-dimethyl-5-(trans-4-((5-methylpyridin-2-yl)amino)cyclohexyl)-5H-pyrrolo[2,3-b]pyrazin-6(7H)-one] gave an IC50 of 1.54 nM. In the case of `Oc1ncnc2c1nc(C(F)(F)F)n2[C@H]1C[C@H](Nc2ncc3ccccc3n2)C1` [Example 23, 9-(trans-3-(quinazolin-2-ylamino)cyclobutyl)-8-(trifluoromethyl)-9H-purin-6-ol], the IC50 is reported as 440 nM. In the case of `COc1cnc(N[C@H]2C[C@H](N3C(=O)C(C)(C)c4cccnc43)C2)nc1` [Example 83, 1-(trans-3-((5-methoxypyrimidin-2-yl)amino)cyclobutyl)-3,3-dimethyl-1H-pyrrolo[2,3-b]pyridin-2(3H)-one], the IC50 is reported as 7.72 nM. With `CC1(C)C(=O)N(C2CC(Nc3ccc4ccccc4n3)C2)c2nccnc21` (stereo not shown) [Example 187, 7,7-dimethyl-5-(3-(quinolin-2-ylamino)cyclobutyl)-5H-pyrrolo[2,3-b]pyrazin-6(7 H)-one] the IC50 was 1.06 nM. `O=c1n(C2CC2)c2nccnc2n1[C@H]1C[C@H](Nc2ccc3cccnc3n2)C1` [Example 223, 1-(trans-3-((1,8-naphthyridin-2-yl)amino)cyclobutyl)-3-cyclopropyl-1H-imidazo[4,5-b]pyrazin-2(3 H)-one] gave an IC50 of 18.4 nM. `CC1(C)C(=O)N([C@H]2C[C@H](Nc3ncc4ccccc4n3)C2)c2ncccc21` [Example 166, 3,3-dimethyl-1-(trans-3-(quinazolin-2-ylamino)cyclobutyl)-1H-pyrrolo[2,3-b]pyridin-2(38)-one] gave an IC50 of 1120 nM. For `O=c1n(C2CC2)c2nccnc2n1[C@H]1C[C@H](Nc2nc3ccccc3o2)C1` [Example 220, 1-(trans-3-(benzo[d]oxazol-2-ylamino)cyclobutyl)-3-cyclopropyl-1H-imidazo[4,5-b]pyrazin-2(3H)-one], the IC50 was 2.35 nM. `O=C1N([C@H]2C[C@H](Nc3nc4ccccc4s3)C2)c2ncccc2C12CCOCC2` [Example 37, 1′-(Trans-3-(benzo[d]thiazol-2-ylamino)cyclobutyl)-2,3,5,6-tetrahydrospiro[pyran-4,3′-pyrrolo[2,3-b]pyridin]-2′(1′H)-one] was tested, and the IC50 was 0.14 nM. Compound `FC(F)(F)c1nn([C@H]2C[C@H](Nc3nc4ccccc4s3)C2)c2ncccc12` [Example 115, N-(trans-3-(3-(trifluoromethyl)-1H-pyrazolo[3,4-b]pyridin-1-yl)cyclobutyl)benzo[d]thiazol-2-amine] has an IC50 of 1.7 nM.
